Test results from patent US12630523B2, “Isoquinoline derivatives for use as antiviral and antitumour agents” (priority 2021, dated 2026).
“And” between values parts separate entries of the source, which are not always exact repeats. Identical values can stand only once. Like-named read-outs stand apart in the source and are kept apart here.

Assays:
[1] = test system: SARS-CoV-2 isolate BetaCov/Belgium/GHB-03021/2020; test: microbe, parasite or virus in culture; format: cell-based; settings: for inhibition at 1.25 µM: Severe acute respiratory syndrome coronavirus 2, 1.25 μM (non-toxic compound concentration), n4; for SARS-CoV-2 antiviral activity, mono treatment or combination (FIG. 10): Vero E6 cells, VSP035 10-0.625 μM
[2] = test system: human cervical carcinoma (CaSki) xenograft; test: CaSki high risk HPV16 human cervical carcinoma xenograft model; format: in vivo, nude mice; settings: for % TGI (Day 44): percentage tumor growth inhibition with respect to controls / Δ% on Day 44 / Δ% Body Weight: OC246/OC974 os 2 mg/kg/day; for % TGI (Day 44): percentage tumor growth inhibition with respect to controls: 4 × week; for % TGI (Day 44): percentage tumor growth inhibition with respect to controls / Tumor Volume Day 44 (mm^3 ± SD): 3 cycles, CDDP i.v. q7d × 3, 6 mg/kg; for Δ% on Day 44 / Δ% Body Weight: CDDP i.v. 6 mg/kg; for Δ% on Day 44: control 100; for Tumor Volume Day 44 (mm^3 ± SD): OC246/OC974 os daily 4 × week, 2 mg/kg/day, control 1099 ± 503; for Δ% Body Weight: between first day of treatment (day 20) and Day 44, control +4.9
Protocol: The aim of this study was to assess the in vivo efficacy of OC246 and OC974 on a human cervical carcinoma (CaSki) xenograft model in nude mice. OC246 and OC974 were administered oral once daily for four times with three days off, for three cycles at 2 mg/kg/dose. Cisplatin (CDDP) was used as a reference compound with three weekly intravenous (q7dx3) administrations of 6 mg/kg.

CaSki cells = test: Cell cycle analysis using Propidium-Iodide staining (flow cytometry); format: cell-based, human; settings: 48 hour incubation; for A*/5 μM (apoptosis as measured from total SUB G1 content) / A*/10 μM (apoptosis as measured from total SUB G1 content): no treatment 15.0; for G2/5 μM / G1/5 μM / G2/10 μM / G1/10 μM: cell cycle distribution; for G2/5 μM / G2/10 μM: no treatment 15.6; for G1/5 μM / G1/10 μM: no treatment 53.3
Protocol: Propidium-Iodide (PI) DNA staining is performed to facilitate cell cycle analysis. For PI-DNA staining, fixed cells and eventually antibody-stained cells are resuspended in 450 μl of PBS (per 10^6 cells) and incubated with 100 μg/ml RNase (stock 1 mg/ml, in PBS) for 10 minutes at 37° C. Cells are then incubated with 5 μg/106 cells of PI (stock 1 mg/ml in PBS) for 10 minutes at room temperature. Samples are stored at 4° C. until CF analysis.
CaSki cells were incubated with various compounds and cell cycle distribution of the cells was assessed using Propidium-Iodide staining.
In order to analyze the cytostatic versus the cytotoxic effect of OC compounds, cell cycle profiles were analyzed in vitro after 48 hour incubations using Flow Cytometry as a read out. For this a cell cycle analysis from selected OC E7 degrader compounds was conducted in CaSki cells. Using 6 well plates, 1.5×10^5 cells were seeded for each well and grown over night at 37° C. 5% CO2. For analysis of the cell cycle behavior, cells were analyzed in the presence of propidium Iodide (PI^−) by flow cytometry (FC). Briefly, cells were detached by trypsin digestion, all supernatants were included in the analysis, and fixed with 70% ice cold ethanol and stored at 4° C. until FC analysis using PI^− staining (1 mg/ml). At least 7000 events were acquired for each sample.

[3] = test system: CaSki (ATCC CRM-CRL-1550); test: Monolayer assay using Sulphorhodamine B (SRB) staining, CaSki; format: cell-based; settings: Homo sapiens, Ca-Ski
In short: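 After 24 h recovery, 10.000–30.000 cells/well treated 72 h with compound at 9 concentrations. Cells TCA-fixed (10% final) 1 h at 4 °C, SRB-stained, optical density read at 540 nm; EC50 for growth inhibition from non-linear regression of log concentration versus % T/C.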

Compound	inhibition at 1.25 µM [1] [%]	% TGI (Day 44): percentage tumor growth inhibition with respect to controls [2] [%]	Δ% on Day 44 [2] [%]	Tumor Volume Day 44 (mm^3 ± SD) [2] [mm^3]	Δ% Body Weight [2]	A*/5 μM (apoptosis as measured from total SUB G1 content) (CaSki cells) [%]	A*/10 μM (apoptosis as measured from total SUB G1 content) (CaSki cells)	G2/5 μM (CaSki cells) [%]	G1/5 μM (CaSki cells) [%]	G2/10 μM (CaSki cells) [%]	G1/10 μM (CaSki cells) [%]	EC50 ([3]; read-out: EC50 mean [nM]) [nM]	EC50 ([3]; 72 h) [nM]	SARS-CoV-2 antiviral activity, mono treatment or combination (FIG. 10) [1]	SARS-CoV-2 antiviral activity, mono treatment or combination (FIG. 10) ([1]; listed as VS035)
CN1CCC(CN2C(=O)c3ccccc3[C@@H](C(=O)Nc3cccc(N4CCN(C)CC4)c3)[C@@H]2c2ccc(C(F)(F)F)cc2)CC1 (racemic) [OC974, (3R,4R)- and (3S,4S)-N-[3-(4-methylpiperazin-1-yl)phenyl]-2-[(1-methylpiperidin-4-yl)methyl]-1-oxo-3-[4-(trifluoromethyl)phenyl]-3,4-dihydroisoquinoline-4-carboxamide]	54.3	63.9	23	307 ± 171	+1.1%	19.5	82.9% and 81.8%	9.9	49.6	0.8	8.7	1550	–	–	–
Cc1ccc(CN2C(=O)c3ccccc3[C@H](C(=O)Nc3cccc(N4CCN(C)CC4)c3)[C@@H]2c2ccc(C(F)(F)F)cc2)cc1 [OC246, N-[3-(4-methylpiperazin-1-yl)phenyl]-2-[(4-methylphenyl)methyl]-1-oxo-3-[4-(trifluoromethyl)phenyl]-1,2,3,4-tetrahydroisoquinoline-4-carboxamide]	45.7	66.6	27	371 ± 153	+5.5%	19.6	89.4%	15.7	48.0	0.2	1.5	3050	2890	–	–
CN1CCC(CN2C(=O)c3ccccc3[C@H](C(=O)Nc3cccc(N4CCN(C)CC4)c3)[C@H]2c2ccc(C(F)(F)F)cc2)CC1 [VSP035, (3S,4S)-N-[3-(4-methylpiperazin-1-yl)phenyl]-2-[(1-methylpiperidin-4-yl)methyl]-1-oxo-3-[4-(trifluoromethyl)phenyl]-1,2,3,4-tetrahydroisoquinoline-4-carboxamide]	72.4	–	–	–	–	–	–	–	–	–	–	3750	–	moderate	Robust antiviral activities
